Numbers after ± are expanded uncertainties.
Details: Liquid; for mass density: Vibrating wire densiometer; for viscosity: Vibrating wire viscometry

CCCCCCCCCCCCCCCC [hexadecane]
Details	mass density [kg/m3]	viscosity [mPa·s]
298.36 K, 1060 kPa	769.2 ± 2.3	3.107 ± 0.065
298.36 K, 1080 kPa	769.2 ± 2.3	3.109 ± 0.065
298.36 K, 10010 kPa	775 ± 2.3	3.497 ± 0.072
298.36 K, 21090 kPa	781.2 ± 2.3	4.032 ± 0.084
298.36 K, 30500 kPa	786.4 ± 2.4	4.534 ± 0.094
298.61 K, 970 kPa	768.9 ± 2.3	3.143 ± 0.065
298.61 K, 10340 kPa	774.7 ± 2.3	3.562 ± 0.073
298.61 K, 20570 kPa	780.8 ± 2.3	4.041 ± 0.084
298.61 K, 30370 kPa	785.9 ± 2.4	4.588 ± 0.094
323.21 K, 1090 kPa	751.5 ± 2.3	1.874 ± 0.04
323.21 K, 1250 kPa	751.7 ± 2.3	1.872 ± 0.04
323.21 K, 21100 kPa	765.2 ± 2.3	2.387 ± 0.05
323.21 K, 40990 kPa	776.9 ± 2.3	2.957 ± 0.061
323.21 K, 60490 kPa	787.1 ± 2.4	3.598 ± 0.075
323.21 K, 80320 kPa	796 ± 2.4	4.381 ± 0.091
323.21 K, 102810 kPa	803.3 ± 2.4	5.08 ± 0.11
323.22 K, 990 kPa	752.4 ± 2.3	1.878 ± 0.04
323.22 K, 20960 kPa	764.8 ± 2.3	2.429 ± 0.051
323.22 K, 42100 kPa	777.2 ± 2.3	3.007 ± 0.062
323.22 K, 61170 kPa	787.4 ± 2.4	3.666 ± 0.076
323.22 K, 81170 kPa	796 ± 2.4	4.471 ± 0.092
348.2 K, 610 kPa	734.8 ± 2.2	1.275 ± 0.027
348.2 K, 1010 kPa	734.4 ± 2.2	1.255 ± 0.027
348.2 K, 1070 kPa	734.5 ± 2.2	1.251 ± 0.027
348.2 K, 20050 kPa	749.2 ± 2.3	1.57 ± 0.033
348.2 K, 20370 kPa	749.8 ± 2.3	1.595 ± 0.033
348.2 K, 40520 kPa	762.5 ± 2.3	1.939 ± 0.041
348.2 K, 40780 kPa	762.9 ± 2.3	1.97 ± 0.041
348.2 K, 60680 kPa	773.7 ± 2.3	2.356 ± 0.049
348.2 K, 62000 kPa	773.9 ± 2.3	2.398 ± 0.05
348.2 K, 80380 kPa	783.3 ± 2.4	2.813 ± 0.059
348.2 K, 80450 kPa	783.5 ± 2.4	2.806 ± 0.059
348.2 K, 100940 kPa	791.9 ± 2.4	3.278 ± 0.068
373.12 K, 1210 kPa	717.2 ± 2.2	0.911 ± 0.02
373.12 K, 1240 kPa	717.3 ± 2.2	0.91 ± 0.02
373.12 K, 20080 kPa	733.9 ± 2.2	1.136 ± 0.024
373.12 K, 40700 kPa	748.6 ± 2.2	1.397 ± 0.029
373.12 K, 60760 kPa	760.8 ± 2.3	1.678 ± 0.035
373.12 K, 80760 kPa	771.3 ± 2.3	1.988 ± 0.042
373.12 K, 100220 kPa	780.9 ± 2.3	2.303 ± 0.048
373.25 K, 1370 kPa	717.7 ± 2.2	0.926 ± 0.02
373.25 K, 19850 kPa	733.7 ± 2.2	1.148 ± 0.024
373.25 K, 40190 kPa	748.6 ± 2.2	1.399 ± 0.029
373.25 K, 59970 kPa	760.4 ± 2.3	1.692 ± 0.035
373.25 K, 81310 kPa	771.4 ± 2.3	1.995 ± 0.042
398.21 K, 1230 kPa	700.1 ± 2.1	0.693 ± 0.015
398.21 K, 1670 kPa	700.4 ± 2.1	–

Source: the NIST ThermoML archive (doi:10.1021/acs.jced.6b00750)
